Measurements taken from PubChem BioAssay (NCI).
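Method: 48-hour compound exposure of cells in 96-well plates, five concentrations, linear interpolation of endpoints. GI50 is the concentration that inhibits growth by half. TGI denotes the concentration required for complete inhibition of growth.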

Assays:
Test in all cases: DTP human tumour cell line panel, 48 h
[1] = system: UO-31 renal
[2] = system: HT29 colon
[3] = system: MCF7 breast
[4] = system: NCI/ADR-RES ovarian
[5] = system: CCRF-CEM leukemia
[6] = system: ACHN renal
[7] = system: IGROV1 ovarian
[8] = system: HL-60(TB) leukemia
[9] = system: MDA-MB-231 breast
[10] = system: HCT-15 colon
[11] = system: A549 NSCLC
[12] = system: LOX IMVI melanoma
[13] = system: RPMI-8226 leukemia
[14] = system: BT-549 breast
[15] = system: CAKI-1 renal
[16] = system: SW-620 colon
[17] = system: SN12C renal
[18] = system: SK-OV-3 ovarian
[19] = system: OVCAR-3 ovarian
[20] = system: SF-268 CNS
[21] = system: SK-MEL-5 melanoma
[22] = system: NCI-H226 lung
[23] = system: HOP-62 NSCLC
[24] = system: OVCAR-4 ovarian
[25] = system: HOP-92 NSCLC
[26] = system: MOLT-4 leukemia
[27] = system: UACC-62 melanoma
[28] = system: NCI-H23 lung
[29] = system: DU-145 prostate
[30] = system: COLO 205 colon
[31] = system: MALME-3M melanoma
[32] = system: EKVX NSCLC
[33] = system: HCT-116 colon
[34] = system: K-562 leukemia
[35] = system: 786-0 renal
[36] = system: SF-539 CNS
[37] = system: TK-10 renal
[38] = system: T-47D breast
[39] = system: PC-3 prostate
[40] = system: SR leukemia
[41] = system: SK-MEL-28 melanoma
[42] = system: OVCAR-8 ovarian
[43] = system: SF-295 CNS
[44] = system: OVCAR-5 ovarian
[45] = system: SNB-19 CNS
[46] = system: HS 578T breast
[47] = system: A498 renal
[48] = system: HCC-2998 colon
[49] = system: U251 CNS
[50] = system: UACC-257 melanoma
[51] = system: SK-MEL-2 melanoma
[52] = system: NCI-H522 lung
[53] = system: RXF 393 renal
[54] = system: KM12 colon
[55] = system: NCI-H460 lung
[56] = system: SNB-75 CNS
[57] = system: M14 melanoma
[58] = system: MDA-MB-435

CCN1C(=O)N(CC)C2C1NN=c1s/c(=C\c3ccccn3)c(=O)n12 (configuration not stated)
GI50 [1]: 2.51 µM | TGI [1]: > 100 µM | GI50 [2]: 0.681 µM | TGI [2]: > 100 µM | GI50 [3]: 0.468 µM | TGI [3]: > 100 µM | GI50 [4]: 0.977 µM | TGI [4]: > 100 µM | GI50 [5]: 1.53 µM | TGI [5]: > 100 µM | GI50 [6]: 6.45 µM | TGI [6]: > 100 µM | GI50 [7]: 2.02 µM | TGI [7]: > 100 µM | GI50 [8]: 0.487 µM | TGI [8]: 3.42 µM | GI50 [9]: 4.05 µM | TGI [9]: > 100 µM | GI50 [10]: 0.558 µM | TGI [10]: > 100 µM | GI50 [11]: 2.15 µM | TGI [11]: > 100 µM | GI50 [12]: 5.71 µM | TGI [12]: > 100 µM | GI50 [13]: 1.71 µM | TGI [13]: > 100 µM | GI50 [14]: 3.99 µM | TGI [14]: > 100 µM | GI50 [15]: 0.752 µM | TGI [15]: > 100 µM | GI50 [16]: 0.743 µM | TGI [16]: > 100 µM | GI50 [17]: 5.29 µM | TGI [17]: > 100 µM | GI50 [18]: 3.92 µM | TGI [18]: > 100 µM | GI50 [19]: 0.403 µM | TGI [19]: 2.2 µM | GI50 [20]: 88.5 µM | TGI [20]: > 100 µM | GI50 [21]: 2.46 µM | TGI [21]: > 100 µM | GI50 [22]: 3.07 µM | TGI [22]: > 100 µM | GI50 [23]: 2.91 µM | TGI [23]: > 100 µM | GI50 [24]: > 100 µM | TGI [24]: > 100 µM | GI50 [25]: 2.37 µM | TGI [25]: > 100 µM | GI50 [26]: 1.57 µM | TGI [26]: > 100 µM | GI50 [27]: 0.833 µM | TGI [27]: > 100 µM | GI50 [28]: 3.82 µM | TGI [28]: > 100 µM | GI50 [29]: 2.4 µM | TGI [29]: > 100 µM | GI50 [30]: 1.16 µM | TGI [30]: 11.6 µM | GI50 [31]: 1.63 µM | TGI [31]: > 100 µM | GI50 [32]: 4.45 µM | TGI [32]: > 100 µM | GI50 [33]: 0.825 µM | TGI [33]: > 100 µM | GI50 [34]: 0.446 µM | TGI [34]: > 100 µM | GI50 [35]: 4.7 µM | TGI [35]: > 100 µM | GI50 [36]: 1.74 µM | TGI [36]: 7.9 µM | GI50 [37]: 40.7 µM | TGI [37]: > 100 µM | GI50 [38]: 4.84 µM | TGI [38]: > 100 µM | GI50 [39]: 1.79 µM | TGI [39]: > 100 µM | GI50 [40]: 0.455 µM | TGI [40]: > 100 µM | GI50 [41]: 4.95 µM | TGI [41]: > 100 µM | GI50 [42]: 3.98 µM | TGI [42]: > 100 µM | GI50 [43]: 2.72 µM | TGI [43]: > 100 µM | GI50 [44]: 4.61 µM | TGI [44]: > 100 µM | GI50 [45]: 3.04 µM | TGI [45]: > 100 µM | GI50 [46]: 2.76 µM | TGI [46]: > 100 µM | GI50 [47]: 0.184 µM | TGI [47]: 2.74 µM | GI50 [48]: 3.17 µM | TGI [48]: > 100 µM | GI50 [49]: 2.96 µM | TGI [49]: > 100 µM | GI50 [50]: > 100 µM | TGI [50]: > 100 µM | GI50 [51]: 2.64 µM | TGI [51]: > 100 µM | GI50 [52]: 0.69 µM | TGI [52]: 10.2 µM | GI50 [53]: 1.66 µM | TGI [53]: 5.86 µM | GI50 [54]: 1.29 µM | TGI [54]: > 100 µM | GI50 [55]: 2.07 µM | TGI [55]: > 100 µM

C=C1c2ccoc2C[C@H]2[C@H]1CC[C@@]1(O)[C@@](C)(C(=O)OC)CCC[C@]21C
GI50 [1]: 33.9 µM | TGI [1]: > 100 µM | GI50 [2]: 17.5 µM | TGI [2]: 81.6 µM | GI50 [3]: 9.51 µM | TGI [3]: > 100 µM | GI50 [4]: 42.5 µM | TGI [4]: > 100 µM | GI50 [5]: 23.5 µM | TGI [5]: 60.1 µM | GI50 [6]: 16 µM | TGI [6]: 40.9 µM | GI50 [7]: 11.2 µM | TGI [7]: 38.4 µM | GI50 [9]: 36.6 µM | TGI [9]: > 100 µM | GI50 [10]: 24.9 µM | TGI [10]: 64.9 µM | GI50 [11]: 25.5 µM | TGI [11]: > 100 µM | GI50 [12]: 17.6 µM | TGI [12]: 36.7 µM | GI50 [13]: 21.5 µM | TGI [13]: 54 µM | GI50 [14]: 26 µM | TGI [14]: 60.3 µM | GI50 [15]: 50.2 µM | TGI [15]: > 100 µM | GI50 [16]: 29.8 µM | TGI [16]: 85.5 µM | GI50 [17]: 16.9 µM | TGI [17]: 34 µM | GI50 [18]: > 100 µM | TGI [18]: > 100 µM | GI50 [56]: > 100 µM | TGI [56]: > 100 µM | GI50 [19]: 17.4 µM | TGI [19]: 43.3 µM | GI50 [57]: 29.3 µM | TGI [57]: 82.6 µM | GI50 [20]: 22.7 µM | TGI [20]: 73.5 µM | GI50 [21]: 18.1 µM | TGI [21]: 37.8 µM | GI50 [22]: 18.1 µM | TGI [22]: 56.2 µM | GI50 [23]: 40.7 µM | TGI [23]: > 100 µM | GI50 [24]: 86.5 µM | TGI [24]: > 100 µM | GI50 [25]: 14.6 µM | TGI [25]: 57.1 µM | GI50 [26]: 15.6 µM | TGI [26]: 43.3 µM | GI50 [27]: 13.7 µM | TGI [27]: 30.7 µM | GI50 [28]: 44.4 µM | TGI [28]: > 100 µM | GI50 [29]: 38.4 µM | TGI [29]: > 100 µM | GI50 [30]: 20 µM | TGI [30]: 55 µM | GI50 [31]: 22.1 µM | TGI [31]: 56.2 µM | GI50 [32]: 37 µM | TGI [32]: > 100 µM | GI50 [33]: 15.7 µM | TGI [33]: 31.2 µM | GI50 [35]: 40.1 µM | TGI [35]: > 100 µM | GI50 [36]: 69.3 µM | TGI [36]: > 100 µM | GI50 [37]: > 100 µM | TGI [37]: > 100 µM | GI50 [38]: 27.3 µM | TGI [38]: > 100 µM | GI50 [39]: 27.6 µM | TGI [39]: > 100 µM | GI50 [40]: 13.1 µM | TGI [40]: 31.6 µM | GI50 [41]: 54.2 µM | TGI [41]: > 100 µM | GI50 [42]: > 100 µM | TGI [42]: > 100 µM | GI50 [58]: 23.9 µM | TGI [58]: 54.3 µM | GI50 [43]: 27.9 µM | TGI [43]: 81.9 µM | GI50 [44]: > 100 µM | TGI [44]: > 100 µM | GI50 [45]: 62.1 µM | TGI [45]: > 100 µM | GI50 [46]: 71.9 µM | TGI [46]: > 100 µM | GI50 [47]: 21.9 µM | TGI [47]: 40.8 µM | GI50 [48]: 29.4 µM | TGI [48]: 71 µM | GI50 [49]: 42.4 µM | TGI [49]: > 100 µM | GI50 [50]: 35.7 µM | TGI [50]: > 100 µM | GI50 [51]: 19 µM | TGI [51]: 42.2 µM | GI50 [52]: 17.5 µM | TGI [52]: 54 µM | GI50 [53]: 48 µM | TGI [53]: > 100 µM | GI50 [54]: 25.6 µM | TGI [54]: 89.7 µM | GI50 [55]: 18 µM | TGI [55]: 49.9 µM
